Data: the NIST ThermoML archive (doi:10.1021/je060283w)

Assay: relative permittivity at zero frequency (dimensionless)
Settings: Parallel plate capacitor

COC [dimethyl ether]
Settings	relative permittivity at zero frequency
303.7 K, 180 kPa, Gas	1.016
303.7 K, 320 kPa, Gas	1.025
303.7 K, 440 kPa, Gas	1.032
303.7 K, 460 kPa, Gas	1.034
303.7 K, 500 kPa, Gas	1.037
303.7 K, 530 kPa, Gas	1.039
303.7 K, 660 kPa, Gas	1.084
303.7 K, 6300 kPa, Liquid	5.34
303.7 K, 8000 kPa, Liquid	5.37
303.7 K, 10200 kPa, Liquid	5.41
303.7 K, 12200 kPa, Liquid	5.44
303.7 K, 14200 kPa, Liquid	5.47
303.7 K, 16300 kPa, Liquid	5.5
303.7 K, 17600 kPa, Liquid	5.52
303.7 K, 20200 kPa, Liquid	5.56
303.7 K, 22400 kPa, Liquid	5.59
303.7 K, 24200 kPa, Liquid	5.62
303.7 K, 25900 kPa, Liquid	5.64
303.7 K, 27500 kPa, Liquid	5.66
313.3 K, 80 kPa, Gas	1.011
313.3 K, 150 kPa, Gas	1.015
313.3 K, 460 kPa, Gas	1.034
313.3 K, 510 kPa, Gas	1.037
313.3 K, 560 kPa, Gas	1.041
313.3 K, 770 kPa, Gas	1.057
313.3 K, 870 kPa, Gas	1.142
313.3 K, 2300 kPa, Liquid	5
313.3 K, 4400 kPa, Liquid	5.05
313.3 K, 6300 kPa, Liquid	5.1
313.3 K, 8300 kPa, Liquid	5.14
313.3 K, 10200 kPa, Liquid	5.16
313.3 K, 12200 kPa, Liquid	5.2
313.3 K, 14300 kPa, Liquid	5.24
313.3 K, 16300 kPa, Liquid	5.27
313.3 K, 18000 kPa, Liquid	5.3
313.3 K, 20400 kPa, Liquid	5.33
313.3 K, 22000 kPa, Liquid	5.35
313.3 K, 24300 kPa, Liquid	5.39
313.3 K, 26100 kPa, Liquid	5.41
313.3 K, 28200 kPa, Liquid	5.44
313.3 K, 29600 kPa, Liquid	5.46
323 K, 50 kPa, Gas	1.01
323 K, 100 kPa, Gas	1.012
323 K, 240 kPa, Gas	1.02
323 K, 450 kPa, Gas	1.033
323 K, 530 kPa, Gas	1.038
323 K, 700 kPa, Gas	1.049
323 K, 1080 kPa, Gas	1.118
323 K, 1300 kPa, Liquid	4.72
323 K, 2200 kPa, Liquid	4.74
323 K, 4200 kPa, Liquid	4.8
323 K, 6200 kPa, Liquid	4.85
323 K, 8200 kPa, Liquid	4.89
323 K, 10400 kPa, Liquid	4.93
323 K, 12400 kPa, Liquid	4.97
323 K, 14200 kPa, Liquid	5.01
323 K, 16400 kPa, Liquid	5.04
323 K, 18300 kPa, Liquid	5.07
323 K, 19800 kPa, Liquid	5.1
323 K, 22000 kPa, Liquid	5.13
323 K, 24000 kPa, Liquid	5.17
323 K, 26300 kPa, Liquid	5.2
323 K, 27900 kPa, Liquid	5.23
323 K, 29400 kPa, Liquid	5.25
323 K, 31200 kPa, Liquid	5.27
333.4 K, 430 kPa, Gas	1.03
333.4 K, 460 kPa, Gas	1.031
333.4 K, 540 kPa, Gas	1.036
333.4 K, 710 kPa, Gas	1.047
333.4 K, 850 kPa, Gas	1.057
333.4 K, 1050 kPa, Gas	1.071
333.4 K, 1380 kPa, Gas	1.122
333.4 K, 2200 kPa, Liquid	4.46
333.4 K, 4300 kPa, Liquid	4.52
333.4 K, 6400 kPa, Liquid	4.58
333.4 K, 8300 kPa, Liquid	4.62
333.4 K, 10200 kPa, Liquid	4.67
333.4 K, 12200 kPa, Liquid	4.71
333.4 K, 14000 kPa, Liquid	4.74
333.4 K, 15800 kPa, Liquid	4.78
333.4 K, 17200 kPa, Liquid	4.81
333.4 K, 22000 kPa, Liquid	4.89
333.4 K, 23800 kPa, Liquid	4.92
333.4 K, 25800 kPa, Liquid	4.95
333.4 K, 27600 kPa, Liquid	4.97
333.4 K, 29400 kPa, Liquid	4.99
343.2 K, 60 kPa, Gas	1.01
343.2 K, 120 kPa, Gas	1.013
343.2 K, 220 kPa, Gas	1.018
343.2 K, 390 kPa, Gas	1.027
343.2 K, 430 kPa, Gas	1.029
343.2 K, 490 kPa, Gas	1.032
343.2 K, 550 kPa, Gas	1.035
343.2 K, 610 kPa, Gas	1.039
343.2 K, 740 kPa, Gas	1.044
343.2 K, 930 kPa, Gas	1.059
343.2 K, 1090 kPa, Gas	1.069
343.2 K, 1240 kPa, Gas	1.08
343.2 K, 1550 kPa, Gas	1.106
343.2 K, 1730 kPa, Gas	1.166
343.2 K, 2600 kPa, Liquid	4.21
343.2 K, 4000 kPa, Liquid	4.25
343.2 K, 6000 kPa, Liquid	4.32
343.2 K, 8200 kPa, Liquid	4.38
343.2 K, 10200 kPa, Liquid	4.43
343.2 K, 12200 kPa, Liquid	4.48
343.2 K, 14400 kPa, Liquid	4.52
343.2 K, 16300 kPa, Liquid	4.56
343.2 K, 18000 kPa, Liquid	4.59
343.2 K, 20200 kPa, Liquid	4.64
343.2 K, 21900 kPa, Liquid	4.67
343.2 K, 23400 kPa, Liquid	4.69
343.2 K, 27700 kPa, Liquid	4.76
343.2 K, 30400 kPa, Liquid	4.8
343.2 K, 33200 kPa, Liquid	4.84
353.1 K, 40 kPa, Gas	1.01
353.1 K, 100 kPa, Gas	1.012
353.1 K, 220 kPa, Gas	1.017
353.1 K, 480 kPa, Gas	1.03
353.1 K, 530 kPa, Gas	1.033
353.1 K, 580 kPa, Gas	1.036
353.1 K, 680 kPa, Gas	1.041
353.1 K, 780 kPa, Gas	1.047
353.1 K, 870 kPa, Gas	1.052
353.1 K, 970 kPa, Gas	1.058
353.1 K, 1070 kPa, Gas	1.064
353.1 K, 1180 kPa, Gas	1.071
353.1 K, 1270 kPa, Gas	1.078
353.1 K, 1340 kPa, Gas	1.082
353.1 K, 1440 kPa, Gas	1.09
353.1 K, 1540 kPa, Gas	1.098
353.1 K, 1700 kPa, Gas	1.109
353.1 K, 1890 kPa, Gas	1.128
353.1 K, 2150 kPa, Gas	1.178
353.1 K, 2200 kPa, Liquid	3.92
353.1 K, 4000 kPa, Liquid	3.98
353.1 K, 6400 kPa, Liquid	4.07
353.1 K, 8200 kPa, Liquid	4.13
353.1 K, 10200 kPa, Liquid	4.19
353.1 K, 12200 kPa, Liquid	4.24
353.1 K, 14200 kPa, Liquid	4.29
353.1 K, 16100 kPa, Liquid	4.33
353.1 K, 18200 kPa, Liquid	4.38
353.1 K, 20000 kPa, Liquid	4.42
353.1 K, 21800 kPa, Liquid	4.45
353.1 K, 24000 kPa, Liquid	4.49
353.1 K, 25800 kPa, Liquid	4.52
353.1 K, 27700 kPa, Liquid	4.55
353.1 K, 29800 kPa, Liquid	4.58
363.4 K, 850 kPa, Gas	1.048
363.4 K, 1050 kPa, Gas	1.059
363.4 K, 1200 kPa, Gas	1.068
363.4 K, 1410 kPa, Gas	1.081
363.4 K, 1580 kPa, Gas	1.092
363.4 K, 1750 kPa, Gas	1.104
363.4 K, 1890 kPa, Gas	1.116
363.4 K, 2070 kPa, Gas	1.131
363.4 K, 2280 kPa, Gas	1.15
363.4 K, 2800 kPa, Liquid	3.63
363.4 K, 4200 kPa, Liquid	3.71
363.4 K, 6200 kPa, Liquid	3.8
363.4 K, 8000 kPa, Liquid	3.88
363.4 K, 10200 kPa, Liquid	3.95
363.4 K, 12200 kPa, Liquid	4.01
363.4 K, 14200 kPa, Liquid	4.06
363.4 K, 16000 kPa, Liquid	4.11
363.4 K, 18000 kPa, Liquid	4.16
363.4 K, 20000 kPa, Liquid	4.2
363.4 K, 22000 kPa, Liquid	4.24
363.4 K, 24000 kPa, Liquid	4.28
363.4 K, 26000 kPa, Liquid	4.31
363.4 K, 28000 kPa, Liquid	4.35
363.4 K, 30500 kPa, Liquid	4.4
372.9 K, 3400 kPa, Liquid	3.38
372.9 K, 4200 kPa, Liquid	3.44
372.9 K, 6100 kPa, Liquid	3.57
372.9 K, 8300 kPa, Liquid	3.66
372.9 K, 10200 kPa, Liquid	3.73
372.9 K, 12200 kPa, Liquid	3.81
372.9 K, 14400 kPa, Liquid	3.88
372.9 K, 16200 kPa, Liquid	3.91
372.9 K, 18300 kPa, Liquid	3.96
372.9 K, 20000 kPa, Liquid	4
372.9 K, 22300 kPa, Liquid	4.05
372.9 K, 24100 kPa, Liquid	4.09
372.9 K, 26200 kPa, Liquid	4.14
372.9 K, 27800 kPa, Liquid	4.16
372.9 K, 29200 kPa, Liquid	4.18
382.9 K, 4000 kPa, Liquid	3.08
382.9 K, 6200 kPa, Liquid	3.31
382.9 K, 8100 kPa, Liquid	3.43
382.9 K, 10000 kPa, Liquid	3.53
382.9 K, 12300 kPa, Liquid	3.62
382.9 K, 14200 kPa, Liquid	3.68
382.9 K, 16100 kPa, Liquid	3.74
382.9 K, 18000 kPa, Liquid	3.79
382.9 K, 20000 kPa, Liquid	3.84
382.9 K, 22000 kPa, Liquid	3.89
382.9 K, 24000 kPa, Liquid	3.93
382.9 K, 26000 kPa, Liquid	3.97
382.9 K, 27900 kPa, Liquid	4.01
382.9 K, 30100 kPa, Liquid	4.05
393 K, 6200 kPa, Liquid	3.01
393 K, 8400 kPa, Liquid	3.21
393 K, 10000 kPa, Liquid	3.3
393 K, 12300 kPa, Liquid	3.4
393 K, 14200 kPa, Liquid	3.47
393 K, 16200 kPa, Liquid	3.54
393 K, 18200 kPa, Liquid	3.6
393 K, 20000 kPa, Liquid	3.65
393 K, 22000 kPa, Liquid	3.7
393 K, 24000 kPa, Liquid	3.75
393 K, 26000 kPa, Liquid	3.79
393 K, 27800 kPa, Liquid	3.83
393 K, 29500 kPa, Liquid	3.86
402.9 K, 6900 kPa, Fluid (supercritical or subcritical phases)	2.75
402.9 K, 8600 kPa, Fluid (supercritical or subcritical phases)	2.96
402.9 K, 10200 kPa, Fluid (supercritical or subcritical phases)	3.08
402.9 K, 12000 kPa, Fluid (supercritical or subcritical phases)	3.19
402.9 K, 14200 kPa, Fluid (supercritical or subcritical phases)	3.28
402.9 K, 16100 kPa, Fluid (supercritical or subcritical phases)	3.35
402.9 K, 18000 kPa, Fluid (supercritical or subcritical phases)	3.4
402.9 K, 20000 kPa, Fluid (supercritical or subcritical phases)	3.47
402.9 K, 21700 kPa, Fluid (supercritical or subcritical phases)	3.51
402.9 K, 23600 kPa, Fluid (supercritical or subcritical phases)	3.55
402.9 K, 25800 kPa, Fluid (supercritical or subcritical phases)	3.61
402.9 K, 27100 kPa, Fluid (supercritical or subcritical phases)	3.64
402.9 K, 29500 kPa, Fluid (supercritical or subcritical phases)	3.68
